We go through one compound from patent publication US9783853B2, “Recurrent gene fusions in cancer” (THE REGENTS OF THE UNIVERSITY OF MICHIGAN, priority 2013, dated 2017).

Test [1] concerns SW780 cells (FGFR3-BAIAP2L1 fusion). Nature of the test: Cell proliferation assay (WST-1), FGFR inhibition. In kind it is cell-based. Conditions: 0, 5, 25, 100 nM. On the procedure: For validation of fusion transcripts, quantitative RT-PCR assays were performed. Total cDNAs of index cases and negative control samples were synthesized using SuperScript III System according to the manufacturer's instructions (Invitrogen). Quantitative RT-PCR was performed using fusion-specific primers (Table 15) with SYBR Green Master Mix (Applied Biosystems) on the StepOne Real-Time PCR System (Applied Biosystems). The PCR products were further analyzed by agarose gel electrophoresis. Relative mRNA levels of the fusion transcripts were normalized to the expression of the housekeeping gene GAPDH. Inhibition of FGFR receptors and cell proliferation assay Bladder cancer cells SW780, J82, and HT1197 were seeded into 96-well plates in triplicate and allowed to attach before drug treatment. The FGFR inhibitor PD173074 (Selleck Chemicals) was added to the cultures at concentrations of 0, 5, 25, and 100 nM. Relative cell numbers were measured by WST-1 assays at indicated time points following the manufacturer's instructions (Roche).
(Formazan colour is commonly taken as a measure of viable cells.)

The next test relates to J82 xenografts. The experiment in a line: Mouse xenograft model, tumor growth. The format is in vivo, C.B17/SCID mice. Conditions: increasing doses, intraperitoneal. On the procedure: (§1) Five week-old male C.B17/SCID mice were procured from a breeding colony at University of Michigan, maintained by Dr. Kenneth Pienta. Mice were anesthetized using a cocktail of xylazine ([…], intraperitoneal) and ketamine (10 mg/kg, intraperitoneal) for chemical restraint. Bladder cancer cells SW780 (2 million cells for each implantation site) or J82 (5 million cells for each implantation site) were resuspended in 100 μl of 1×PBS with 20% Matrigel (BD Biosciences) and were implanted subcutaneously into flank region on both sides. Eight mice were included in each experimental group. All tumors were staged for two weeks (SW780 cells) and three weeks (J82 cells) before starting the drug treatment. Xenografted mice with palpable tumors were treated with a FGFR inhibitor PD173074 (Selleck Chemicals) dissolved in 5% ethanol in corn oil (intraperitoneal). Mice in control group received 5% ethanol in corn oil as vehicle control. Tumor growth was recorded weekly by using digital calipers and tumor volumes were calculated using the formula (π/6) (L×W2), where L=length of tumor and W=width. Any decrease in the body weight of mice was monitored bi-weekly during the course of the study. All experimental procedures involving mice were approved by the University Committee on Use and Care of Animals (UCUCA) at the University of Michigan and conform to their relevant regulatory standards.

The test system of a further test is SW780 xenografts. The experiment in a line: Mouse xenograft model, tumor growth. The format is in vivo, C.B17/SCID mice. The settings on record: increasing doses, intraperitoneal. On the procedure:
as §1

SMILES strings stand for the structures.

For `CCN(CC)CCCCNc1ncc2cc(-c3cc(OC)cc(OC)c3)c(NC(=O)NC(C)(C)C)nc2n1` [PD173074], the “sensitivity of cell line to FGFR inhibitor (cell proliferation)” value in test [1] is “sensitive to nanomolar concentrations”; in test [1] (listed as PD 173074), “enhanced sensitivity”. Besides, the values for the xenograft tumor growth entry in the test on J82 xenografts and in the test on SW780 xenografts were “did not” and “decreased tumor growth”, respectively.
